US4257941A, “Polycyclic nitrogen-containing compounds” (BASF Aktiengesellschaft, priority 1976, dated 1981)
Where two headings read alike, the source gives them in different places.

Tests used:
Format in all cases: in vivo
Alopecurus myosuroides = experiment: Herbicidal action (Example 25); conditions: for pest or weed control at 1000 g/ha / pest or weed control at 2000 g/ha / pest or weed control at 4000 g/ha / pest or weed control at 8000 g/ha: Alopecurus myosuroides, read-out: percentage damage; for pest or weed control at 1000 g/ha: 1.0 kg/ha; for pest or weed control at 2000 g/ha: 2.0 kg/ha; for pest or weed control at 8000 g/ha: 8.0 kg/ha
Procedure: (§1) Paraffined paper cups having a volume of 170 cm^3 were filled with a sandy loam, and the seeds of the test plants sown therein, separated by species. (The species are also listed below.)
(§2) In the first group, treatment was effected immediately after sowing and before germination of the seeds (preemergence treatment=soil treatment). Shallow sown seeds not completely covered with soil came into contact with the active ingredients. In the second group, the plants were treated postemergence (=leaf treatment) at a growth height of from 2 to 8 cm, depending on the rate of growth and shape of the species concerned. The compounds were suspended or emulsified in water and applied with the aid of fine nozzles. The soil and plants were thoroughly sprinkler irrigated for the duration of the experiment. The cups were placed in the greenhouse and kept in the temperature range 12°-25° C. or 18°-35° C., depending on the temperature requirements of the various species. After 2 to 6 weeks the action was assessed visually on a 0 to 100 scale, 0 denoting no damage and 100 denoting plants not germinated or completely destroyed.

Echinochloa crus galli = experiment: Herbicidal action (Example 25)
Procedure: as §1, §2

Galium aparine = experiment: Herbicidal action (Example 25); conditions: post-emergence, postemergence, 4.0 kg/ha, read-out: percentage damage
Procedure: as §1, §2

Sinapis alba = experiment: Herbicidal action (Example 25); conditions: read-out: percentage damage; for pest or weed control at 1000 g/ha: 1.0 kg/ha; for pest or weed control at 2000 g/ha: 2.0 kg/ha
Procedure: as §1, §2

Datura stramonium = experiment: Herbicidal action (Example 25); conditions: postemergence
Procedure: as §1, §2

Digitaria sanguinalis = experiment: Herbicidal action (Example 25); conditions: postemergence
Procedure: as §1, §2

Eleusine indica = experiment: Herbicidal action (Example 25); conditions: postemergence
Procedure: as §1, §2

Festuca rubra = experiment: Growth height of individual grasses (Example 15); conditions: for Growth height: 3 weeks after treatment; for growth height relative: control 100
Procedure: (§3) Under the same conditions as in Example 13 the two grasses Festuca rubra and Poa praetensis (both components of the lawn mixture used in Example 13) were grown in a neutral sandy loam. The growth height was measured 3 weeks after treatment with the active ingredients.

Poa praetensis = experiment: Growth height of individual grasses (Example 15); set-up: key to plant color: ^+: plants a darker green; conditions: for Growth height: 3 weeks after treatment; for growth height relative: control 100
Procedure: as §3

[1] = post-emergence, postemergence, 4.0 kg/ha
[2] = pre-emergence, preemergence, 4.0 kg/ha

Compound: O=C(Nc1ccc(Cl)c(Cl)c1)C1CC1
- pest or weed control at 1000 g/ha (Alopecurus myosuroides; post-emergence, postemergence): 80%
- pest or weed control at 2000 g/ha (Alopecurus myosuroides; post-emergence, postemergence): 30%
- pest or weed control at 1000 g/ha (Alopecurus myosuroides; pre-emergence, preemergence): 0%
- pest or weed control at 2000 g/ha (Alopecurus myosuroides; pre-emergence, preemergence): 0%
- percentage damage (Echinochloa crus galli; postemergence, 1.0 kg/ha): 100 percentage damage
- percentage damage (Echinochloa crus galli; postemergence, 2.0 kg/ha): 100 percentage damage
- percentage damage (Echinochloa crus galli; preemergence, 1.0 kg/ha): 80 percentage damage
- percentage damage (Echinochloa crus galli; preemergence, 2.0 kg/ha): 90 percentage damage
- pest or weed control at 4000 g/ha (Galium aparine): 0%
- pest or weed control at 1000 g/ha (Sinapis alba; post-emergence, postemergence): 100%
- pest or weed control at 2000 g/ha (Sinapis alba; post-emergence, postemergence): 100%
- pest or weed control at 1000 g/ha (Sinapis alba; pre-emergence, preemergence): 60%
- pest or weed control at 2000 g/ha (Sinapis alba; pre-emergence, preemergence): 60%

Compound: c1ccc(N2N=NC3C4CC(C5N=NC45)C32)cc1 (stereo not drawn) [drawing 429]
- pest or weed control at 2000 g/ha (Alopecurus myosuroides; post-emergence, postemergence): 15%
- pest or weed control at 4000 g/ha (Alopecurus myosuroides; [1]): 38%
- pest or weed control at 8000 g/ha (Alopecurus myosuroides; post-emergence, postemergence): 45%
- pest or weed control at 2000 g/ha (Alopecurus myosuroides; pre-emergence, preemergence): 70%
- pest or weed control at 8000 g/ha (Alopecurus myosuroides; pre-emergence, preemergence): 90%
- percentage damage (Alopecurus myosuroides; preemergence, 4.0 kg/ha): 75 percentage damage
- percentage damage (Datura stramonium; 2.0 kg/ha): 60 percentage damage
- percentage damage (Datura stramonium; 4.0 kg/ha): 95 percentage damage
- percentage damage (Datura stramonium; 8.0 kg/ha): 100 percentage damage
- percentage damage (Digitaria sanguinalis; 2.0 kg/ha): 60 percentage damage
- percentage damage (Digitaria sanguinalis; 4.0 kg/ha): 70 percentage damage
- percentage damage (Digitaria sanguinalis; 8.0 kg/ha): 80 percentage damage
- percentage damage (Eleusine indica; 2.0 kg/ha): 90 percentage damage
- percentage damage (Eleusine indica; 4.0 kg/ha): 90 percentage damage
- percentage damage (Eleusine indica; 8.0 kg/ha): 90 percentage damage

Compound: C=CCN(CC=C)C(=O)CCl [drawing 425]
- pest or weed control at 2000 g/ha (Alopecurus myosuroides; post-emergence, postemergence): 28%
- pest or weed control at 4000 g/ha (Alopecurus myosuroides; [1]): 38%
- pest or weed control at 8000 g/ha (Alopecurus myosuroides; post-emergence, postemergence): 35%
- pest or weed control at 2000 g/ha (Alopecurus myosuroides; pre-emergence, preemergence): 68%
- pest or weed control at 4000 g/ha (Alopecurus myosuroides; [2]): 85%
- pest or weed control at 8000 g/ha (Alopecurus myosuroides; pre-emergence, preemergence): 98%
- percentage damage (Datura stramonium; 2.0 kg/ha): 10 percentage damage
- percentage damage (Datura stramonium; 4.0 kg/ha): 20 percentage damage
- percentage damage (Datura stramonium; 8.0 kg/ha): 60 percentage damage

Compound: c1csc(N2N=NC3C4CC(C5N=NC45)C32)n1 (stereo not drawn) [drawing 430]
- pest or weed control at 2000 g/ha (Alopecurus myosuroides; post-emergence, postemergence): 32%
- pest or weed control at 4000 g/ha (Alopecurus myosuroides; [1]): 40%
- pest or weed control at 8000 g/ha (Alopecurus myosuroides; post-emergence, postemergence): 50%
- pest or weed control at 2000 g/ha (Alopecurus myosuroides; pre-emergence, preemergence): 70%
- pest or weed control at 4000 g/ha (Alopecurus myosuroides; [2]): 88%
- pest or weed control at 8000 g/ha (Alopecurus myosuroides; pre-emergence, preemergence): 100%
- percentage damage (Datura stramonium; 2.0 kg/ha): 50 percentage damage
- percentage damage (Datura stramonium; 4.0 kg/ha): 60 percentage damage
- percentage damage (Datura stramonium; 8.0 kg/ha): 65 percentage damage
- percentage damage (Digitaria sanguinalis; 2.0 kg/ha): 60 percentage damage
- percentage damage (Digitaria sanguinalis; 4.0 kg/ha): 60 percentage damage
- percentage damage (Digitaria sanguinalis; 8.0 kg/ha): 80 percentage damage
- percentage damage (Eleusine indica; 2.0 kg/ha): 60 percentage damage
- percentage damage (Eleusine indica; 4.0 kg/ha): 60 percentage damage
- percentage damage (Eleusine indica; 8.0 kg/ha): 70 percentage damage

Compound: Clc1ccc(N2N=NC3C4CC(C5N=NC45)C32)cc1 (stereo not drawn) [drawing 385]
- Growth height (Festuca rubra; 0.5 kg/ha): 27.0 cm
- growth height relative (Festuca rubra; 0.5 kg/ha): 98.2
- Growth height (Festuca rubra; 1.0 kg/ha): 25.5 cm
- growth height relative (Festuca rubra; 1.0 kg/ha): 92.7
- Growth height (Festuca rubra; 2.0 kg/ha): 23.5 cm
- growth height relative (Festuca rubra; 2.0 kg/ha): 85.5
- Growth height (Poa praetensis; 0.5 kg/ha): 20.0 cm
- growth height relative (Poa praetensis; 0.5 kg/ha): 88.9
- plant color (Poa praetensis; 1.0 kg/ha): ^+
- Growth height (Poa praetensis; 1.0 kg/ha): 20.0 cm
- growth height relative (Poa praetensis; 1.0 kg/ha): 88.9
- plant color (Poa praetensis; 2.0 kg/ha): ^+
- Growth height (Poa praetensis; 2.0 kg/ha): 15.5 cm
- growth height relative (Poa praetensis; 2.0 kg/ha): 68.9

Compound: COc1ccc(NC(=O)N(C)C)cc1Cl
- pest or weed control at 1000 g/ha (Alopecurus myosuroides; post-emergence, postemergence): 70%
- pest or weed control at 2000 g/ha (Alopecurus myosuroides; post-emergence, postemergence): 70%
- pest or weed control at 1000 g/ha (Alopecurus myosuroides; pre-emergence, preemergence): 0%
- pest or weed control at 2000 g/ha (Alopecurus myosuroides; pre-emergence, preemergence): 0%
- percentage damage (Echinochloa crus galli; postemergence, 1.0 kg/ha): 100 percentage damage
- percentage damage (Echinochloa crus galli; postemergence, 2.0 kg/ha): 100 percentage damage
- percentage damage (Echinochloa crus galli; preemergence, 1.0 kg/ha): 80 percentage damage
- percentage damage (Echinochloa crus galli; preemergence, 2.0 kg/ha): 90 percentage damage
- pest or weed control at 4000 g/ha (Galium aparine): 50%
- pest or weed control at 1000 g/ha (Sinapis alba; post-emergence, postemergence): 100%
- pest or weed control at 2000 g/ha (Sinapis alba; post-emergence, postemergence): 100%
- pest or weed control at 1000 g/ha (Sinapis alba; pre-emergence, preemergence): 90%
- pest or weed control at 2000 g/ha (Sinapis alba; pre-emergence, preemergence): 90%

Compound: Brc1ccc(N2N=NC3C4CC(C5N=NC45)C32)cc1 (stereo not drawn) [drawing 386]
- Growth height (Festuca rubra; 0.5 kg/ha): 29.5 cm
- growth height relative (Festuca rubra; 0.5 kg/ha): 107.3
- Growth height (Festuca rubra; 1.0 kg/ha): 27.5 cm
- growth height relative (Festuca rubra; 1.0 kg/ha): 100.0
- Growth height (Festuca rubra; 2.0 kg/ha): 25.5 cm
- growth height relative (Festuca rubra; 2.0 kg/ha): 92.7
- Growth height (Poa praetensis; 0.5 kg/ha): 19.0 cm
- growth height relative (Poa praetensis; 0.5 kg/ha): 84.4
- plant color (Poa praetensis; 1.0 kg/ha): ^+
- Growth height (Poa praetensis; 1.0 kg/ha): 17.5 cm
- growth height relative (Poa praetensis; 1.0 kg/ha): 77.8
- plant color (Poa praetensis; 2.0 kg/ha): ^+
- Growth height (Poa praetensis; 2.0 kg/ha): 14.0 cm
- growth height relative (Poa praetensis; 2.0 kg/ha): 62.2
